Data from publication PMC10041525, “New Dual Inhibitors of Bacterial Topoisomerases with Broad-Spectrum Antibacterial Activity and In Vivo Efficacy against Vancomycin-Intermediate Staphylococcus aureus” (Journal of Medicinal Chemistry, 2023).
In brackets after ≈: the same amount, converted by molar mass. Several values for one entry are separate records, joined by “and”; a condition that tells them apart may be missing. Equal values may be shown once. Read-outs that look alike come from different tables or passages of the source.

Experiments:
E. faecium (n = 13) = assay: MIC broth microdilution at IHMA Europe; assay type: cell-based; conditions: for MIC: Enterococcus faecium, read-out: MIC
[1] = in vivo pharmacokinetics, IV; design: species or system male CD-1 mice
Procedure: The in vivo pharmacokinetic studies of 7a were performed by Selvita d.o.o. (Zagreb, Croatia) in male CD-1 mice (Charles River). The test compound was administered via intravenous (iv) bolus at a dose of 1 mg/kg (dose volume 5 mL/kg). Blood samples were collected from the tail vein 0.05, 0.25, 0.5, 1.0, 2.0, 4.0, 8.0, and 24 h after administration from three animals per time point. Each animal was sampled 2–4 times throughout the time course of collection (six animals were used totally per each route). Blood samples were centrifuged at 1560g for 10 min at 4 °C. The samples were analyzed by LC–MS/MS. Prior to analysis, the samples were prepared by protein precipitation {20 μL of plasma + 20 μL of water + 240 μL of extraction solvent [acetonitrile/methanol (2:1 v/v) with 100 ng/mL diclofenac (IS)]}, and the extracts were diluted with water (1:3 v/v).
For LC–MS/MS analysis, a Shimadzu prominence HPLC system was used (HPLC pump: LC30AD, autosampler: SIL30ACMP, column oven: CTO30A) connected to an Applied Biosystems mass spectrometer (QTRAP 5500) operating in the positive TurboIonSpray mode. For separation, a Waters Acquity UPLC BEH C18 1.7 μm, 2.1 × 50 mm (Waters, Milford, MA) column was used, with an injection volume of 1 or 2 μL and a flow rate of 0.5 mL/min. The mobile phase consisted of 0.1% formic acid in water (solvent A) and 0.1% formic acid in acetonitrile (solvent B). Gradient: 0–0.05 min, 5% B; 0.05–0.80 min, 5–85% B; 0.80–1.00, 85% B; 1.00–1.01, 85–95% B; 1.01–1.50, 95% B; 1.50–1.51, 95–5% B, 1.51–2.00, 5% B.
Pharmacokinetic analysis was performed using WinNonlin Phoenix software (Certara, version 8.3) from the mean animal plasma concentration per group, per time point, non-compartmental analysis, and the target dose.

S. pneumoniae (n = 12) = assay: MIC broth microdilution at IHMA Europe; assay type: cell-based; conditions: for MIC: Streptococcus pneumoniae, read-out: MIC
[2] = system: Neisseria gonorrhoeae (n = 12); assay: MIC broth microdilution at IHMA Europe; assay type: cell-based; conditions: for MIC: Neisseria gonorrhoeae, read-out: MIC
[3] = system: Haemophilus influenzae (n = 14); assay: MIC broth microdilution at IHMA Europe; assay type: cell-based, H. influenzae; conditions: for MIC: Haemophilus influenzae, read-out: MIC
[4] = male, CD-1, mouse, plasma, IV 1 mg/kg

In the case of `Cc1[nH]c(C(=O)Nc2nc3c(N4CCOCC4)cc(C(=O)O)cc3s2)c(Cl)c1Cl` [7a, 2-(3,4-Dichloro-5-methyl-1H-pyrrole-2-carboxamido)-4-morpholinobenzo[d]thiazole-6-carboxylic Acid], the “Cumulative % at MIC” value (E. faecium (n = 13)) is reported as 61.5% and 100.0%, the “No. of isolates at MIC” value (E. faecium (n = 13)) is reported as 8 and 5 and the MIC (E. faecium (n = 13); E. faecium IHMA N° 1764866) is reported as 0.06 µg/mL (≈ 0.132 µM). For the same compound, the MIC (E. faecium (n = 13); E. faecium IHMA N° 1765436) was 0.06 µg/mL (≈ 0.132 µM), the MIC (E. faecium (n = 13); E. faecium IHMA N° 1765746) was 0.06 µg/mL (≈ 0.132 µM) and the MIC (E. faecium (n = 13); E. faecium IHMA N° 1893573) was 0.06 µg/mL (≈ 0.132 µM). For the same compound, the MIC (E. faecium (n = 13); E. faecium IHMA N° 1893846) was 0.12 µg/mL (≈ 0.264 µM), the MIC (E. faecium (n = 13); E. faecium IHMA N° 1893942) was 0.12 µg/mL (≈ 0.264 µM) and the MIC (E. faecium (n = 13); E. faecium IHMA N° 1894055) was 0.12 µg/mL (≈ 0.264 µM). The MIC (E. faecium (n = 13); E. faecium IHMA N° 1897027) was 0.12 µg/mL (≈ 0.264 µM), the MIC (E. faecium (n = 13); E. faecium IHMA N° 1897101) was 0.06 µg/mL (≈ 0.132 µM) and the MIC (E. faecium (n = 13); E. faecium IHMA N° 1904592) was 0.06 µg/mL (≈ 0.132 µM). It also gave an MIC (E. faecium (n = 13); E. faecium IHMA N° 2075051) of 0.12 µg/mL (≈ 0.264 µM), an MIC (E. faecium (n = 13); E. faecium IHMA N° 2077718) of 0.06 µg/mL (≈ 0.132 µM) and an MIC (E. faecium (n = 13); E. faecium IHMA N° 2083787) of 0.06 µg/mL (≈ 0.132 µM). For the same compound, the “MIC, all isolates” value (E. faecium (n = 13); n = 13) was no more than 0.12 µg/mL, the “plasma clearance as % of liver blood flow” value ([1]; assuming 90 mL/min/kg) was 61% and the AUC(0-inf) at 24 h [1, 4] was 304 ng·h/mL. For the same compound, the C0 at 24 h [1, 4] was 913 ng/mL, the clearance at 24 h [1, 4] was 54.8 mL/min/kg and the half-life at 24 h [1, 4] was 1 h. For the same compound, the AUC(0-t) at 24 h ([1]; male, CD-1, mouse, plasma, IV 1 mg/kg, read-out: AUC0–24h) was 303 ng·h/mL, the Vd at 24 h ([1]; male, CD-1, mouse, plasma, IV 1 mg/kg, read-out: Vss) was 2.3 L/kg and the “Cumulative % at MIC” value (S. pneumoniae (n = 12); MIC […]) was 25.0%. It also gave an MIC (S. pneumoniae (n = 12); S. pneumoniae IHMA N° 1775387) of 0.5 µg/mL (≈ 1.1 µM), an MIC (S. pneumoniae (n = 12); S. pneumoniae IHMA N° 1776057) of 0.5 µg/mL (≈ 1.1 µM) and an MIC (S. pneumoniae (n = 12); S. pneumoniae IHMA N° 1785617) of 0.25 µg/mL (≈ 0.549 µM). The MIC (S. pneumoniae (n = 12); S. pneumoniae IHMA N° 1800765) was 0.5 µg/mL (≈ 1.1 µM), the MIC (S. pneumoniae (n = 12); S. pneumoniae IHMA N° 1811259) was 0.06 µg/mL (≈ 0.132 µM) and the MIC (S. pneumoniae (n = 12); S. pneumoniae IHMA N° 1831562) was 0.5 µg/mL (≈ 1.1 µM). For the same compound, the MIC (S. pneumoniae (n = 12); S. pneumoniae IHMA N° 1902609) was 0.5 µg/mL (≈ 1.1 µM), the MIC (S. pneumoniae (n = 12); S. pneumoniae IHMA N° 1979675) was 0.5 µg/mL (≈ 1.1 µM) and the MIC (S. pneumoniae (n = 12); S. pneumoniae IHMA N° 1991963) was 0.5 µg/mL (≈ 1.1 µM). It also gave an MIC (S. pneumoniae (n = 12); S. pneumoniae IHMA N° 2057487) of 0.5 µg/mL (≈ 1.1 µM), an MIC (S. pneumoniae (n = 12); S. pneumoniae IHMA N° 2073087) of 0.5 µg/mL (≈ 1.1 µM) and an MIC (S. pneumoniae (n = 12); S. pneumoniae IHMA N° 2117109) of 0.12 µg/mL (≈ 0.264 µM). For the same compound, the “MIC, all isolates” value (S. pneumoniae (n = 12); n = 12) was no more than 0.5 µg/mL, the “Cumulative % at MIC” value [2] was 50.0% and 100.0% and the “No. of isolates at MIC” value [2] was 6. For the same compound, the “No. of isolates at MIC” value ([2]; MIC 0.06 µg/mL) was 6, the MIC ([2]; isolate IHMA 1123853) was no more than 0.03 µg/mL and the MIC ([2]; isolate IHMA 1130935) was no more than 0.03 µg/mL. It also gave an MIC ([2]; isolate IHMA 1130989) of 0.06 µg/mL (≈ 0.132 µM), an MIC ([2]; isolate IHMA 1130991) of 0.06 µg/mL (≈ 0.132 µM) and an MIC ([2]; isolate IHMA 1137292) of 0.06 µg/mL (≈ 0.132 µM). It also gave an MIC ([2]; isolate IHMA 1145734) of no more than 0.03 µg/mL, an MIC ([2]; isolate IHMA 1145735) of no more than 0.03 µg/mL and an MIC ([2]; isolate IHMA 1165897) of no more than 0.03 µg/mL. The MIC ([2]; isolate IHMA 1194748) was no more than 0.03 µg/mL, the MIC ([2]; isolate IHMA 1194750) was 0.06 µg/mL (≈ 0.132 µM) and the MIC ([2]; isolate IHMA 1546199) was 0.06 µg/mL (≈ 0.132 µM). The MIC ([2]; isolate IHMA 1546215) was 0.06 µg/mL (≈ 0.132 µM), the “MIC, all isolates” value ([2]; n = 12) was no more than 0.06 µg/mL and the “No. of isolates at MIC” value [3] was 3 and 6 and 4. The MIC ([3]; H. influenzae IHMA N° 1227715) was 0.12 µg/mL (≈ 0.264 µM), the MIC ([3]; H. influenzae IHMA N° 1241620) was 0.25 µg/mL (≈ 0.549 µM) and the MIC ([3]; H. influenzae IHMA N° 1244149) was 0.5 µg/mL (≈ 1.1 µM). It also gave an MIC ([3]; H. influenzae IHMA N° 1249803) of 0.12 µg/mL (≈ 0.264 µM), an MIC ([3]; H. influenzae IHMA N° 1254355) of 0.25 µg/mL (≈ 0.549 µM) and an MIC ([3]; H. influenzae IHMA N° 1258580) of 0.5 µg/mL (≈ 1.1 µM). It also gave an MIC ([3]; H. influenzae IHMA N° 1262734) of 0.25 µg/mL (≈ 0.549 µM), an MIC ([3]; H. influenzae IHMA N° 1272723) of 0.25 µg/mL (≈ 0.549 µM) and an MIC ([3]; H. influenzae IHMA N° 1286846) of 0.5 µg/mL (≈ 1.1 µM). The MIC ([3]; H. influenzae IHMA N° 1337530) was 0.12 µg/mL (≈ 0.264 µM), the MIC ([3]; H. influenzae IHMA N° 1440085) was 0.5 µg/mL (≈ 1.1 µM) and the MIC ([3]; H. influenzae IHMA N° 1479509) was 1 µg/mL (≈ 2.2 µM). For the same compound, the MIC ([3]; H. influenzae IHMA N° 1952952) was 0.25 µg/mL (≈ 0.549 µM), the MIC ([3]; H. influenzae IHMA N° 2047461) was 0.25 µg/mL (≈ 0.549 µM) and the “Cumulative % at MIC” value ([3]; MIC 1 µg/mL) was 100.0%. For the same compound, the “No. of isolates at MIC” value ([3]; MIC 1 µg/mL) was 1 and the “MIC, all isolates” value ([3]; n = 14) was no more than 1 µg/mL.
